Test results: US20220096399A1 (Berg LLC, priority 2012, published 2022)
“Also recorded” adds a separate entry of the source. Like-named read-outs stand apart in the source and are kept apart here.

Assays:
[1] = for Maximum tolerated dose (MTD): first interim analysis, highest dose 104.3 mg/kg per dose
Protocol: An interim analysis was performed on the study participants.
(§1) A standard 3×3 phase I dose-escalation design was used with patients (n=31) with advanced solid malignancies.
Pharmacokinetic (PK) information was calculated with serial serum collection data. Tumor response was determined using RECIST 1.1.

[2] = test system: advanced solid malignancies
Protocol: The study was also performed to examine preliminary efficacy (using RECIST 1.1 criteria), overall clinical benefit, and progression free survival. An interim analysis was performed on the study participants.
as §1
Tumor response was determined using RECIST 1.1.
An exploratory assessment of antitumor activity was undertaken during the study using modified Response Criteria in Solid Tumors (RECIST) v1.1. Tumors were measured at baseline or screening, at the end of Cycle 1 and Cycle 2 treatments, and once every 2 treatment cycles (2 months) thereafter in the absence of clinically rapid progression of disease.

[3] = Phase I trial pharmacokinetic analysis (serial serum collection)
Protocol: Pharmacokinetic (PK) information was calculated with serial serum collection data. Tumor response was determined using RECIST 1.1. Clinical benefit (decreased pain, increased quality of life) was assessed by the treating physician.
Pharmacokinetic and pharmacodynamic analyses were performed during the study as well.

[4] = Example 4, of 39 evaluable subjects
[5] = person, pleomorphic fibrosarcoma, 6 cycles, 22.5 to 58.7 mg/kg/dose

SMILES: COC1=C(OC)C(=O)C(C/C=C(\C)CC/C=C(\C)CC/C=C(\C)CC/C=C(\C)CC/C=C(\C)CC/C=C(\C)CC/C=C(\C)CC/C=C(\C)CC/C=C(\C)CCC=C(C)C)=C(C)C1=O [CoQ10, Coenzyme Q10]
- Maximum tolerated dose (MTD) ([1]; 104.3 mg/kg): has not been identified; also recorded: had not been reached
- Maximum tolerated dose (MTD) ([1]; listed as coenzyme Q10, 104.3 mg/kg): no MTD had been reached
- Patients reporting headache during first week of treatment (%) ([1]; in vivo): 29.0%
- Patients reporting headache during first week of treatment (number) ([1]; in vivo): Nine
- Patients with Grade I asymptomatic elevation of INR (%) ([1]; in vivo): 74.1%
- Patients with Grade I asymptomatic elevation of INR (number) ([1]; in vivo): 23 patients
- Patients with Grade II INR elevation of greater than 2.0 (%) ([1]; in vivo): 45.1%
- Patients with Grade II INR elevation of greater than 2.0 (number) ([1]; in vivo): 14 patients
- Primary Reason for Discontinuation: Intolerable Toxicity, % ([1]; in vivo): 8%
- Subjects with INR greater than 3 (%) ([1]; in vivo): 12.9%
- Subjects with INR greater than 3 (number) ([1]; in vivo): four
- Subjects with INR greater than 5 (%) ([1]; in vivo): 6%
- Subjects with INR greater than 5 (number) ([1]; in vivo): two
- Best Response: Unevaluable, % ([2]; 50 subjects): 20%
- Best Response: Unknown, % ([2]; 50 subjects): 2%
- Primary Reason for Discontinuation: Progressive Disease, % ([2]; 50 subjects): 52%
- Best Response: Complete Response, % ([2]; 50 subjects, RECIST v1.1): 0%
- Best Response: Partial Response, % ([2]; 50 subjects, RECIST v1.1): 2%
- Best Response: Progressive Disease, % ([2]; 50 subjects, RECIST v1.1): 30%
- Best Response: Stable Disease, % ([2]; 50 subjects, RECIST v1.1): 46%
- Best outcome of partial response (number of subjects) [2, 4]: 2 subjects
- Best outcome of progressive disease (number of subjects) [2, 4]: 15 subjects
- Best outcome of stable disease (number of subjects) [2, 4]: 22 subjects
- Average time on treatment of patients with clinical benefit ([2]; first interim analysis): 16 weeks
- Median Progression Free survival ([2]; first interim analysis): 2 months
- Patients with a clinical benefit (%) ([2]; first interim analysis, n=31): 61.2%
- Patients with a clinical benefit (number) ([2]; first interim analysis, n=31): Nineteen
- Average time subjects remained on treatment ([2]; first interim analysis, treatment until clinical progression): 90 days
- Progression free survival and/or clinical benefit ([2]; interim data summary): a majority of patients enrolled in this trial had an increased progression free survival and/or clinical benefit
- Tumor responses observed ([2]; interim data summary): A partial response and minor response were observed
- Evaluable subjects with clinically relevant response by RECIST 1.1 (at least stable disease), number ([2]; of 40 evaluable subjects): 24 subjects
- Evaluable subjects with clinically relevant response by RECIST 1.1 (at least stable disease), % ([2]; of 40 evaluable subjects who completed at least one treatment cycle): 60%
- Duration of partial response ([2]; one subject with sarcoma of the extremity): at least 6 months
- Individual outcome: tumor lesion (CT) ([2]; person, metastatic myxoid liposarcoma, 58.6 mg/kg/dose, four treatment cycles): resolution of their anterior mediastinal lesion
- Individual outcome: tumor response ([2]; person, pleomorphic fibrosarcoma with bone metastasis, 6 cycles, 22.5 to 58.7 mg/kg/dose): minor response
- Individual outcome: pain [2, 5]: significant improvement in pain
- Individual outcome: tumor size (CT) [2, 5]: Tumor shrinkage was also observed
- Individual outcome: duration of response ([2]; person, pleomorphic fibrosarcoma, 22.5 to 58.7 mg/kg/dose): over 10 months
- Dose-proportionality of AUC ([3]; C31510 formulation, FIG. 5): not strictly proportional to dose
- Dependence of t1/2 on dose ([3]; human, IV infusion): little or no dependence on dose
- Linearity of pharmacokinetics ([3]; human, IV infusion): linear
